Data taken from ChEMBL document CHEMBL4000202, “Identification of a diverse synthetic abietane diterpenoid library for anticancer activity” (Bioorg Med Chem Lett, 2017).

Legend:
Type in all cases: functional, cell-based
A549 = assay: Cytotoxic activity against human A549 cells assessed as reduction in cell viability after 72 hrs by SRB assay; settings: A549, 72 h
SK-OV-3 = assay: Cytotoxic activity against human SKOV3 cells assessed as reduction in cell viability after 72 hrs by SRB assay; settings: SK-OV-3, 72 h
PC-3 = assay: Cytotoxic activity against human PC3 cells assessed as reduction in cell viability after 72 hrs by SRB assay; settings: PC-3, 72 h

| SMILES | IC50 (A549) | IC50 (SK-OV-3) | IC50 (PC-3) |
| --- | --- | --- | --- |
| COC(=O)[C@]1(C)CCC[C@]2(C)c3ccc(C(C)C)c(OC)c3CC[C@@H]12 | > 100 µM | 65.2 µM | 59.9 µM |
| COC(=O)[C@]1(C)CCC[C@]2(C)c3ccc(C(C)C)c(O)c3CC[C@@H]12 | 56 µM | 42.9 µM | 22.3 µM |
| COC(=O)[C@]1(C)CCC[C@@]2(C)[C@H]1CC=C1C(=O)[C@@](O)(C(C)C)CC[C@@H]12 | 85.1 µM | 99.2 µM | > 100 µM |
| COc1c(C(C)C)ccc2c1CC[C@H]1[C@H]3COC(=O)[C@H]3CC[C@]21C | > 100 µM | > 100 µM | > 100 µM |
| COC(=O)[C@]1(C)CCC[C@@]2(C)[C@H]1CC=C1[C@@H]2CC[C@](O)(C(C)C)[C@H]1O | 92.4 µM | 92.9 µM | > 100 µM |
| C=C1C(=C(SC)SC)CC[C@]2(CO)c3ccc(C(C)C)c(OC)c3CC[C@@H]12 | 53.8 µM | 32.9 µM | 50.1 µM |
| CC(C)c1ccc2c(c1O)CC[C@H]1C3=C(CC[C@]21C)C(=O)OC3 [TRIPTOPHENOLIDE] | > 100 µM | > 100 µM | > 100 µM |
| COc1c(C(C)C)ccc2c1CC[C@H]1[C@@H](CO)[C@H](O)CC[C@]21C | > 100 µM | > 100 µM | > 100 µM |
| COc1c(C(C)C)ccc2c1CC[C@H]1[C@@H]3COC(=O)[C@@H]3CC[C@]21C | > 100 µM | > 100 µM | > 100 µM |
| C=CCOc1c(C(C)C)ccc2c1C(=O)C[C@H]1C3=C(CC[C@]21C)C(=O)OC3 | > 100 µM | 82.4 µM | 98.3 µM |
| C=CCc1ccc2c(c1O)C(=O)C[C@H]1C3=C(CC[C@]21C)C(=O)OC3 | 95.8 µM | 39.4 µM | 68 µM |
| COc1c(C(C)C)ccc2c1CC[C@H]1[C@@H](O)CCC[C@]21C | > 100 µM | > 100 µM | 98.2 µM |
| CCOCC[C@]12CCC3=C(COC3=O)[C@@H]1CCc1c2ccc(C(C)C)c1OC | > 100 µM | > 100 µM | > 100 µM |
| CC(C)[C@]12O[C@H]1[C@@H]1O[C@]13[C@]1(O[C@H]1C[C@H]1C4=C(CC[C@@]13C)C(=O)OC4)[C@@H]2O [TRIPTOLIDE] | 0.0175 µM | 0.0072 µM | 0.0183 µM |
| CC(C)C1=CC2=CC[C@@H]3[C@](C)(CCC[C@@]3(C)C(=O)O)[C@H]2CC1 [ABIETIC ACID] | > 100 µM | 90.4 µM | > 100 µM |
| C=C1CCC[C@]2(C)c3ccc(C(C)C)c(OC)c3CC[C@@H]12 | 99.1 µM | > 100 µM | > 100 µM |
| COc1c(C(C)C)ccc2c1CC[C@@]1(O)C3=C(C(=O)OC3)[C@@H](O)C[C@]21C | > 100 µM | 92.2 µM | > 100 µM |
| O=c1[nH]cc(F)c(=O)[nH]1 [FLUOROURACIL] | 32.1 µM | 23.1 µM | 15.3 µM |
| COC(=O)[C@]1(C)CCC[C@]2(C)c3ccc(C(C)C)c(OC)c3[C@H](O)C[C@@H]12 | 76.6 µM | 72.2 µM | 55.9 µM |
| COC(=O)C1=C[C@@H]2CCc3c(ccc(C(C)C)c3OC)[C@@]2(C)CC1 | > 100 µM | > 100 µM | > 100 µM |
| C=C1C(=C(SC)SC)CC[C@]2(COCOCC)c3ccc(C(C)C)c(OC)c3CC[C@@H]12 | 99.8 µM | 26 µM | 19.4 µM |
| COc1c(C(C)C)ccc2c1CC[C@H]1[C@@H](O)CCC[C@]21CO[N+](=O)[O-] | > 100 µM | > 100 µM | > 100 µM |

| SMILES | IC50 (A549) | IC50 (SK-OV-3) | IC50 (PC-3) |
| --- | --- | --- | --- |
| COC(=O)[C@]1(C)CCC[C@@]2(C)[C@H]1CC=C1C=C(C(C)C)CC[C@@H]12 [METHYL ABIETATE] | 63.1 µM | 81.3 µM | 79.3 µM |
| COc1cccc2c1CC[C@H]1[C@H]3COC(=O)C3=CC[C@]21C | 88.9 µM | > 100 µM | > 100 µM |
| COC(=O)[C@]1(C)CCC[C@]2(C)c3ccc(C(C)C)c(OC)c3[C@@H](O)C[C@@H]12 | 85.7 µM | 51.9 µM | 64.2 µM |
| C=CCc1cc(C(C)C)c(O)c2c1[C@@]1(C)CCC3=C(COC3=O)[C@@H]1CC2=O | 97.5 µM | 87.1 µM | 95.1 µM |
| C=CCOc1cccc2c1C(=O)C[C@H]1C3=C(CC[C@]21C)C(=O)OC3 | 89.4 µM | > 100 µM | > 100 µM |
| C[C@]12CC=C3C(=O)OC[C@@H]3[C@@H]1CCc1ccccc12 | > 100 µM | > 100 µM | > 100 µM |
| C=C1C(CO)=CC[C@]2(C)c3ccc(C(C)C)c(OC)c3C(=O)C[C@@H]12 | > 100 µM | > 100 µM | > 100 µM |
| COC(=O)[C@]1(C)CCC[C@]2(C)c3ccc(C(C)C)c(N)c3CC[C@@H]12 | 35.7 µM | 37.8 µM | 21.1 µM |
| C[C@]12CCC3=C(COC3=O)[C@@H]1CCc1ccccc12 | > 100 µM | > 100 µM | > 100 µM |
| C=C1[C@@H]2CC(=O)c3c(ccc(C(C)C)c3OC)[C@@]2(C)CC[C@@]1(O)CO | 25 µM | 59.6 µM | 27.2 µM |
| COC(=O)[C@]1(C)CCC[C@]2(C)c3ccc(C(C)C)c([N+](=O)[O-])c3CC[C@@H]12 | > 100 µM | > 100 µM | > 100 µM |
| COc1cccc2c1CC[C@H]1[C@@H](CO)[C@H](O[Si](C)(C)C(C)(C)C)CC[C@]21C | > 100 µM | > 100 µM | > 100 µM |
| COc1cccc2c1CC[C@H]1[C@H]3COC(=O)[C@@]3(O)C(=O)C[C@]21C | > 100 µM | > 100 µM | > 100 µM |
| COc1c(C(C)C)ccc2c1CC[C@H]1C(=O)CCC[C@]21C | > 100 µM | > 100 µM | > 100 µM |
| COc1c(C(C)C)ccc2c1CC[C@H]1c3cocc3CC[C@]21C | 27.4 µM | 21.3 µM | 19.3 µM |
| COc1c(C(C)C)ccc2c1CC[C@H]1C3=C(CC[C@]21CO)C(=O)OC3 | > 100 µM | > 100 µM | > 100 µM |
| C=C1[C@H](O)CC[C@]2(C)c3ccc(C(C)C)c(OC)c3CC[C@@H]12 | 99.6 µM | > 100 µM | > 100 µM |
| CC(C)(C)C(=O)OC[C@H]1[C@H](O)CC[C@]2(C)c3ccccc3CC[C@@H]12 | 64.5 µM | 43.2 µM | 49.2 µM |
| C=C1C(=O)CC[C@]2(C)c3ccc(C(C)C)c(OC)c3CC[C@@H]12 | 9.31 µM | 7.49 µM | 7.28 µM |
| COc1ccc(COC[C@H]2[C@H](O)CC[C@]3(C)c4cccc(OC)c4CC[C@@H]23)cc1 | 5.39 µM | 6.19 µM | 3.37 µM |
| CC(C)c1ccc2c(c1)CC[C@H]1[C@](C)(C(=O)O)CCC[C@]21C [DEHYDROABIETIC ACID] | 74.3 µM | 66 µM | 51.3 µM |
| CC(C)c1ccc2c(c1O)C(=O)C[C@H]1C3=C(CC[C@]21C)C(=O)OC3 | 77.3 µM | 42.5 µM | 58 µM |
